Reference: the NIST ThermoML archive (doi:10.1021/je0340755)

Experiment: xn = mol fraction of the nth substance listed
Details: 101.3 kPa, Liquid; for viscosity: Capillary tube (Ostwald / Ubbelohde) method

OCCCO [propan-1,3-diol] + O
Details	mass density, 298.15 K [kg/m3]	mass density, 308.15 K [kg/m3]	mass density, 318.15 K [kg/m3]	speed of sound, 298.15 K [m/s]	speed of sound, 308.15 K [m/s]	speed of sound, 318.15 K [m/s]	viscosity, 298.15 K [mPa·s]	viscosity, 308.15 K [mPa·s]	viscosity, 318.15 K [mPa·s]
x2 = 0.0622	1050.19	1043.88	1037.53	1650.1	1627.1	1609.1	37.15	25.31	15.8
x2 = 0.1496	1050.32	1044.01	1037.64	1654.3	1634.1	1616	32.92	22.46	14.16
x2 = 0.2563	1050.38	1044.07	1037.68	1670.2	1645.9	1627.8	27.68	18.9	12.19
x2 = 0.35	1050.3	1043.97	1037.55	1693.5	1662.2	1643	23.09	15.8	10.48
x2 = 0.4555	1049.74	1043.39	1036.94	1717.8	1681	1661	18.09	12.44	8.554
x2 = 0.5	1049.21	1042.86	1036.42	1723.1	1688	–	16.07	11.08	7.749
x2 = 0.5548	1048.18	1041.87	–	1726.1	1695.1	–	13.67	9.49	6.767
x2 = 0.6522	1044.85	1038.75	–	1723.3	1702.2	–	9.731	6.881	5.075
x2 = 0.7553	1038.16	1032.55	–	1712.1	1698.8	–	6.136	4.495	3.415
x2 = 0.8522	1027.32	1022.53	–	1689.1	1676.1	–	3.434	2.66	2.057
x2 = 0.9085	1018.19	1014.02	–	1653.2	1642.1	–	2.22	1.794	1.397
x2 = 0.9147	1017.03	1012.94	–	1646.8	1637.1	–	2.104	1.708	1.331
x2 = 0.9255	1014.92	1010.96	–	1636.1	1627.1	–	1.91	1.562	1.221
x2 = 0.935	1012.97	1009.13	–	1623.9	1617.2	–	1.749	1.439	1.127
x2 = 0.9548	1008.63	1005.04	–	1596	1594.1	–	1.442	1.197	0.945
x2 = 0.9556	1008.44	1004.87	–	1594	1593.1	–	1.43	1.188	0.938
x2 = 0.9602	1007.37	1003.85	–	1586	1586.2	–	1.365	1.135	0.898
x2 = 0.97	1005	1001.61	–	1568.2	1572.1	–	1.233	1.025	0.817
x2 = 0.9801	1002.45	999.19	–	1547.1	1556.1	–	1.107	0.917	0.737
x2 = 0.9897	999.9	996.76	–	1525.3	1539.3	–	0.997	0.819	0.667
x2 = 0.9921	999.25	996.14	–	1519.1	1534.1	–	0.971	0.795	0.65
x2 = 0.9951	998.42	995.35	–	1511	1528.8	–	0.939	0.766	0.629
